The results in this text go back to EPA's ToxValDB 9.5.

Structures are written as SMILES. Where “and” joins values, the source holds several entries; their conditions need not be identical. Equal entries are not always repeated.

For data set [1], the system named is Rattus norvegicus.
The next data set relates to Oryctolagus sp. The following applies: acute, dermal, New Zealand.
The test system of data set [2] is Rattus norvegicus. The following applies: for NOEL / LOEL: Hershberger, gavage; for LEL: uterotrophic, duration: 3 days, Active.
In data set [3] the test system is Rattus norvegicus. The settings on record: M/F.
For data set [4], the system named is Rattus norvegicus. The following applies: subchronic, oral, gavage, Sprague-Dawley.
Data set [5] relates to Rattus norvegicus. This is another data set of the same source.
Another data set relates to Mus musculus. The following applies: subchronic; duration: 13 weeks; inhalation; M/F; B6C3F1; neurological.
Setting [6] is: acute, oral, gavage, Sprague-Dawley.
Setting [7] is: subchronic, duration: 30 days, oral, diet, Sprague-Dawley.
Where [8] appears, read: chronic, duration: 2 years, oral, diet, reduced body weight gain and food consumption.
Where [9] appears, read: subchronic, oral, gavage, epithelial hyperplasia of the forestomach.
Where [10] appears, read: duration: 5 days, oral, Sprague-Dawley, active + Antiandrogenic + decrease in AST wts.
[11] abbreviates: duration: 10 days, oral, Fischer 344, active + Antiandrogenic + anti-androgenic + decrease in AST wts.
The mark [12] stands for this setting: duration: 10 days, oral, Sprague-Dawley, Antiandrogenic + anti-androgenic + decrease in AST wts.
Where [13] appears, read: duration: 10 days, oral, Wistar, active + Antiandrogenic + anti-androgenic + decrease in AST wts.

As usually defined, the LD50 is the dose expected to kill half of the subjects tested. The low end stands for greater toxicity, the high end for lower toxicity. What is called NOAEL is the highest dose or exposure tested at which no adverse effect was seen. On to `CC(C)(c1ccc(Oc2ccc3c(c2)C(=O)OC3=O)cc1)c1ccc(Oc2ccc3c(c2)C(=O)OC3=O)cc1` [4,4'-(4,4'-Isopropylidenediphenoxy)bisphthalic dianhydride], for which the LD50 in the data set on Rattus norvegicus [1] (acute, oral, gavage, Spartan) was greater than 5000 mg/kg; with Rattus norvegicus [1] (setting [6]), greater than 5000 mg/kg; with Oryctolagus sp., greater than 2000 mg/kg; in the data set with Oryctolagus sp. (occlusive), greater than 2000 mg/kg. Further, the NOAEL in the data set with Rattus norvegicus [1] (developmental, duration: 10 days, oral, gavage, Sprague-Dawley) is greater than 1000 mg/kg-day; in the data set on Rattus norvegicus [1] (reproduction developmental, oral, gavage, Sprague-Dawley), greater than 1000 mg/kg-day; with Rattus norvegicus [1] (reproduction developmental, oral, gavage, Sprague-Dawley, generation: F1) it was greater than 1000 mg/kg-day. Besides, the “LOAEL (% diet)” value in the data set with Rattus norvegicus [1] (setting [7]) is greater than 4. For the same compound, in the data set with Rattus norvegicus [1] (setting [7]), the “NOAEL (% diet)” value stood at 4.
With `CNC(=O)ON=C(SC)C(=O)N(C)C` [Oxamyl], the NOEL with Rattus norvegicus [2] (duration: 10 days, oral, Sprague-Dawley, inactive + Negative + Negative + neither + negative) came out at 0.5 mg/kg-day; in the data set with Rattus norvegicus [3] (setting [8]), 2.5 mg/kg-day. The same compound displayed an LEL in the data set with Rattus norvegicus [3] (setting [8]) of 5 mg/kg-day.
`CC(C)Oc1ccc2c(=O)c(-c3ccccc3)coc2c1` [Ipriflavone] gave an NOEL in the data set with Rattus norvegicus [4] (duration: 35 days) greater than 3000 mg/kg-day. The same compound displayed an LEL with Rattus norvegicus [2] (oral) of 200 mg/day.
Consider `ClC1C(Cl)C(Cl)C(Cl)C(Cl)C1Cl` (stereo not drawn) [alpha-1,2,3,4,5,6-Hexachlorocyclohexane], for which the NOAEL is 0.9 mg/kg-day in the data set on Rattus norvegicus [5] (chronic, duration: 107 weeks, oral, diet, M/F, Wistar, hepatic) and 2 mg/kg-day in the data set with Rattus norvegicus [5] (short-term, duration: 28 days, oral, gavage, M, Fischer 344, hepatic).
`Brc1ccccc1-c1c(Br)c(Br)c(Br)c(Br)c1Br` [Hexabromobiphenyl] yielded a no observed adverse effect level (NOAEL) with Rattus norvegicus [5] (short-term, duration: 10 days, oral, gavage, M, Sprague-Dawley, endocrine) of 1 mg/kg-day.
Turning to `CCCBr` [1-Bromopropane], the NOAEL in the data set on Rattus norvegicus [5] (short-term, duration: 3 weeks, inhalation, whole body, M, F-344, neurological) came to 50.3 mg/m3.
Consider `Oc1ccc(-c2ccccc2)cc1` [4-Phenylphenol], for which the NOEL in the data set with Rattus norvegicus [4] (M, Body Weight Changes: Reduced gain + Food Consumption: decrease + Hematology: WBC increase, NeutrophilSegment(%) decrease, Lymphocyte(%) …) amounted to 30 mg/kg-day. The LEL in the data set with Rattus norvegicus [2] (injection, subcutaneous) is 10 mg/kg-day.
One may read the LOAEL as the lowest dose or exposure tested at which an adverse effect was seen. `CC(C)CCC(C)Nc1ccc(NC(C)CCC(C)C)cc1` (centres undefined) [N,N'-Bis(1,4-dimethylpentyl)-4-phenylenediamine] displayed an LC50 with Rattus norvegicus [1] (acute, inhalation) greater than 400 mg/m3. Moreover, the LD50 in the data set on Rattus norvegicus [1] (setting [6]) was 730 mg/kg; in the data set with Oryctolagus sp. (occlusive) it was greater than 3160 mg/kg. The lowest observed adverse effect level (LOAEL) in the data set with Rattus norvegicus [1] (chronic, duration: 22 weeks, inhalation) was determined as 100 mg/m3. The no observed adverse effect level (NOAEL) with Rattus norvegicus [1] (developmental, duration: 10 days, oral, gavage, Charles River CD Albino) was found to be 150 mg/kg-day; with Rattus norvegicus [1] (reproduction developmental, duration: 23 weeks, oral, diet, generation: F0) it was 30 ppm; in the data set on Rattus norvegicus [1] (reproduction developmental, duration: 23 weeks, oral, diet, generation: F1), 30 ppm; with Rattus norvegicus [1] (reproduction developmental, duration: 23 weeks, oral, diet, generation: F2), 30 ppm; with Rattus norvegicus [1] (reproduction developmental, duration: 10 days, oral, gavage, F, Charles River CD Albino), 25 mg/kg-day; in the data set with Rattus norvegicus [1] (subchronic, duration: 30 days, oral, diet, F, Sprague-Dawley), 28.8 mg/kg-day. Further, the no observed adverse effect level (NOAEL) with Rattus norvegicus [1] (subchronic, duration: 30 days, oral, diet, M, Sprague-Dawley) came to 9.6 mg/kg-day; in the data set with Rattus norvegicus [1] (subchronic, duration: 90 days, oral, diet, M, Sprague-Dawley) it was 9.6 mg/kg-day.
As to `CBr` [Methyl bromide], the LOAEL stood at 11.7 mg/m3 in the data set with Rattus norvegicus [3] (chronic, duration: 29 months, inhalation, degenerative and proliferative lesions of the olfactory epithelium of the nasal cavity); 7.1 mg/kg-day in the data set with Rattus norvegicus [3] (setting [9]); 12 mg/m3 in the data set on Rattus norvegicus [5] (chronic, duration: 129 weeks, inhalation, M/F, Wistar, respiratory); 38.8 mg/m3 in the data set with Mus musculus. Moreover, in the data set on Rattus norvegicus [3] (setting [9]), the NOAEL was found to be 1.4 mg/kg-day.
Consider `CC(C)C(=O)Nc1ccc([N+](=O)[O-])c(C(F)(F)F)c1` [Flutamide], for which the LOEL with Rattus norvegicus [2] (setting [10]) was 2.5 mg/kg-day; in the data set with Rattus norvegicus [2] (setting [11]) it was 2.5 mg/kg-day and 3.2 mg/kg-day; in the data set on Rattus norvegicus [2] (setting [12]) it was 1 mg/kg-day; in the data set on Rattus norvegicus [2] (setting [13]) it was 2.5 mg/kg-day and 3 mg/kg-day and 3.2 mg/kg-day. In addition, the NOEL in the data set with Rattus norvegicus [2] (setting [10]) worked out at 0.6 mg/kg-day; with Rattus norvegicus [2] (duration: 7 days, oral, Sprague-Dawley, active + Antiandrogenic + anti-androgenic + decrease in AST wts), 0.6 mg/kg-day; with Rattus norvegicus [2] (setting [11]), 0.6 mg/kg-day; in the data set on Rattus norvegicus [2] (setting [12]), 0.6 mg/kg-day; in the data set on Rattus norvegicus [2] (duration: 10 days, oral, Sprague-Dawley, Neither + decrease in AST) it was 0.6 mg/kg-day; with Rattus norvegicus [2] (duration: 10 days, oral, Sprague-Dawley, active + Antiandrogenic + anti-androgenic + decrease in AST wts), 0.6 mg/kg-day. Moreover, the NOEL is 0.6 mg/kg-day in the data set with Rattus norvegicus [2] (duration: 10 days, oral, Sprague-Dawley, active + Antiandrogenic + decrease in AST wts) and 0.6 mg/kg-day in the data set with Rattus norvegicus [2] (setting [13]).
